One experiment deals with T1, TOPK (Homo sapiens, UniProt Q96KB5).
T1 construct: endogenous in cells; host or cells: HaCaT
T1 sequence (Q96KB5 1-322): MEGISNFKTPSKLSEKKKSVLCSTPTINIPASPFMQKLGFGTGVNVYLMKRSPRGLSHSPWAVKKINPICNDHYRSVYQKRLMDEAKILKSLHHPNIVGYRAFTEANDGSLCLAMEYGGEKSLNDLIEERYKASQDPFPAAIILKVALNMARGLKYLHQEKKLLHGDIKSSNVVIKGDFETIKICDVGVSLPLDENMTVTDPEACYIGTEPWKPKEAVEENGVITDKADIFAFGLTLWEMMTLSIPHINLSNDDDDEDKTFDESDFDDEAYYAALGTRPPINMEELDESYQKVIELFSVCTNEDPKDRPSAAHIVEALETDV
Nature of the experiment: Pull-down assay with HaCaT cell lysates. As to conditions: HaCaT cell lysates 500 μg, Western blot. It is filed as binding. On the procedure:
Active TOPK (200 ng) was incubated with different concentrations of ATP (0, 10 or 100 μM) and then mixed with compound 1-conjugated Sepharose 4B beads or Sepharose 4B beads. Proteins were pulled down and analyzed by Western blot. Data are representative of 3 independent experiments that gave similar results. FIGS. 2C and 2D show compound 1 binds to either TOPK (2C) or MEK1/2 (2D) ex vivo. Lysates from HaCaT cells (500 μg) were incubated with compound 1-conjugated Sepharose 4B beads or Sepharose 4B beads alone and the pulled-down proteins were analyzed by Western blot. Data are representative of 3 independent experiments that gave similar results. FIGS. 2E and 2F show compound 1 inhibits TOPK kinase (2E) activity but not MEK1 kinase (2F) activity in vitro. Active TOPK (200 ng) was mixed with compound 1 (0, 0.5, 1, 3, or 5 μM) or HI-032 (TOPK inhibitor, 10 μM) and then incubated with a [γ-^32P] ATP mixture. Similarly, MEK1 (200 ng) was mixed with compound 1 (0, 0.5, 1, 3, 5, or 10 μM) or PD098059 (MEK1 inhibitor, 5 μM) and then incubated with a [γ-^32P] ATP mixture. For 2E and 2F, the results are visualized by autoradiography and Coomassie blue staining serves as a loading control. Data are representative of 3 independent experiments that gave similar results. […]
For orientation: A western blot detects proteins with antibodies after separation by electrophoresis.

In another experiment the test system is JB6 P+ cells. In words: Western blot of SUV-induced TOPK downstream signaling. It is filed as cell-based, mouse. On the procedure:
The cells were cultured, treated for 4 h with different concentrations of compound 1 and then exposed to SUV (60 kJ UVA/m^2 and 2.9 kJ UVB/m^2), followed by an additional 15-minute incubation. Cells were harvested and the levels of phosphorylated and total proteins were determined by Western blot analysis with specific antibodies as indicated. […] The cells were cultured and treated with different concentrations of compound 1 for 24 h. Cells were harvested and the levels of phosphorylated and total proteins were determined by Western blot analysis with specific antibodies as indicated. […] For the luciferase assay, JB6 P+ cells stably transfected with an AP-1 luciferase reporter plasmid were cultured. […] Luciferase activity was measured and AP-1 activity is expressed relative to control cells without SUV treatment. […] Luciferase and 3-galactosidase activities were measured using reagents included in the reporter assay system (right). […] Significant differences were evaluated using one-way ANOVA and the asterisks (*) indicate a significant effect (*, p<0.05; **, p<0.001; ***, p<0.0001). […]
HaCaT or JB6 P+ cells (1×10^6) were cultured in 10-cm dishes for 24 h and then the medium was replaced with 0.1% FBS medium for 24 h. […] Protein concentration in cell lysates was determined using a protein assay kit (Bio-Rad Laboratories, Hercules, Calif.). […]

Regarding `O=C1Nc2ccc(C34CC5CC(CC(C5)C3)C4)cc2C1=NO` [compound 1, 5-(adamantan-1-yl)-3-(hydroxyimino)indolin-2-one], on TOPK, the “binding of TOPK to compound-conjugated beads” value is listed as “detected in the compound 1-conjugated beads group but not in the beads only group”. Further, the “phosphorylated c-Jun protein levels” value in the experiment on JB6 P+ cells (JB6 P+ cells exposed to SUV) is recorded as “significantly suppressed”. Also, in the experiment with JB6 P+ cells (JB6 P+ cells, 4 h treatment then SUV (60 kJ UVA/m2 and 2.9 kJ UVB/m2)), the “phosphorylation of ERK1/2, p38, and JNKs” value is “markedly suppressed”.

Values taken from patent US10487054B2, “Therapeutic compounds” (REGENTS OF THE UNIVERSITY OF MINNESOTA, priority 2017, dated 2019).
